Toxic doses and inconclusive results are not listed. Rule for the calls: active = survival T/C of 150% or more; inactive = T/C below 125% in these data.
Test system: CD2F1 mice, L1210 leukemia ip, survival T/C
Experiment: NCI In Vivo Anticancer Drug Screen. Data for tumor model L1210 Leukemia (intraperitoneal) in CD2F1 (CDF1) mice
Details: endpoint: mean survival time, higher = longer survival
Procedure, shortened: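 Tumor-bearing mice (transplanted tumor) were split into treated and vehicle control groups, and the measured endpoint of each treated group was divided by that of its vehicle controls.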

[1] = dose: 100.0 mg/kg/injection, schedule: Q01DX001 (ip), vehicle: saline with Tween-80
[2] = dose: 200.0 mg/kg/injection, schedule: Q01DX001 (ip), vehicle: saline with Tween-80

Measured: T/C

O=C1CC(c2ccccc2)=NN1c1ccccc1
inactive: dose: 100.0 mg/kg/injection, schedule: Q04DX003 (ip), vehicle: Klucel (hydroxypropylcellulose) (HPC) 98 % of control | dose: 200.0 mg/kg/injection, schedule: Q04DX003 (ip), vehicle: Klucel (hydroxypropylcellulose) (HPC) 95 % of control | dose: 400.0 mg/kg/injection, schedule: Q04DX003 (ip), vehicle: Klucel (hydroxypropylcellulose) (HPC) 101 % of control

CCOC(=O)c1c(O)c(=O)[nH]c2ccccc12
inactive: dose: 100.0 mg/kg/injection, schedule: Q01DX005 (ip), vehicle: saline with Tween-80 106 % of control | dose: 200.0 mg/kg/injection, schedule: Q01DX005 (ip), vehicle: saline with Tween-80 97 % of control | dose: 400.0 mg/kg/injection, schedule: Q01DX005 (ip), vehicle: saline with Tween-80 97 % of control

CC(C)(C)C(NO)C(O)N1CCCCC1 (stereo not given)
inactive: dose: 100.0 mg/kg/injection, schedule: Q01DX001 (ip), vehicle: saline 97 % of control | dose: 200.0 mg/kg/injection, schedule: Q01DX001 (ip), vehicle: saline 95 % of control

CSc1ccccc1C(=O)OC(C)(C)C
inactive: [1] 96 % of control | [2] 103 % of control | dose: 400.0 mg/kg/injection, schedule: Q01DX001 (ip), vehicle: saline with Tween-80 103 % of control

O=S(=O)(c1ccc(Cl)cc1)N(Cl)Cl
inactive: [1] 103 % of control | [2] 101 % of control

CCCCCCCCCCCCCCCC(=O)N(CCC#N)CCC#N
inactive: dose: 100.0 mg/kg/injection, schedule: Q04DX003 (ip), vehicle: saline with Tween-80 93 % of control | dose: 200.0 mg/kg/injection, schedule: Q01DX009 (ip), vehicle: saline with Tween-80 97 % of control | dose: 200.0 mg/kg/injection, schedule: Q04DX003 (ip), vehicle: saline with Tween-80 96 % of control | dose: 400.0 mg/kg/injection, schedule: Q04DX003 (ip), vehicle: saline with Tween-80 109 % of control

O=C/C(Cl)=C(/Cl)C(=O)O
inactive: dose: 1.25 mg/kg/injection, schedule: Q01DX009 (ip), vehicle: saline with Tween-80 100 % of control | dose: 2.5 mg/kg/injection, schedule: Q01DX009 (ip), vehicle: saline with Tween-80 98 % of control | dose: 5.0 mg/kg/injection, schedule: Q01DX009 (ip), vehicle: saline with Tween-80 108 % of control | dose: 6.25 mg/kg/injection, schedule: Q04DX002 (ip), vehicle: saline with Tween-80 103 % of control | dose: 10.0 mg/kg/injection, schedule: Q01DX009 (ip), vehicle: saline with Tween-80 104 % of control | dose: 12.5 mg/kg/injection, schedule: Q04DX002 (ip), vehicle: saline with Tween-80 107 % of control | dose: 20.0 mg/kg/injection, schedule: Q01DX009 (ip), vehicle: saline with Tween-80 103 % of control | dose: 25.0 mg/kg/injection, schedule: Q04DX002 (ip), vehicle: saline with Tween-80 111 % of control

Source: PubChem BioAssay AID256 (DTP/NCI, 2004)
